Measurements from US10441687B2, “Wnt/beta-catenin inhibitor-eluting endovascular stent” (ALBERT EINSTEIN COLLEGE OF MEDICINE, INC., priority 2013, dated 2019).
Entries after “also recorded” stand apart in the source; their conditions may differ.

Experiments:
[1] = test system: Primary WT mouse aortic smooth muscle cells; test: alamarBlue cell viability assay in primary mouse aortic smooth muscle cells; format: cell-based; conditions: 48 hours after treatment; 10% FBS/DMEM; increasing concentrations; p<0.0001 vs vehicle (0 uM)
Method: FIG. 11. Primary WT mouse aortic smooth muscle cells cultured in 10% FBS/DMEM medium were exposed to increasing concentrations of ICG-001 or vehicle (triplicates for each concentration). Cell viability was measured 48 hours after treatment by alamarBlue Assay. Cell viability (%, relative to vehicle treated cells, which were set as 100%) is plotted against the concentration of ICG-001 (uM).
(§1) In order to test the role of Wnt/beta-catenin signaling in vascular SMC biology, beta-catenin was specifically inactivated in SMCs, using a genetic approach in the mouse. […] After midgestation, dilated arterial vessels without an evident SMC layer were observed (FIG. 7). […] It was determined that increased p53 activity in SMCs partially explains the effects of inactivating beta-catenin (FIG. 9).

p53 = p53 luciferase-based reporter assay in primary vascular SMCs; format: cell-based; conditions: control primary vascular SMCs (Adeno-GFP)
Method: FIG. 10. […] The activity of p53 was measured by a luciferase-based reporter assay.
as §1

Compound	Cell viability (%, relative to vehicle treated cells) [1]	p53 activity compared to vehicle (DMSO) (p53; 10 uM XAV939, p<0.05)	p53 activity (p53; wild type, luciferase-based reporter, dose dependence)
O=C1[C@H](Cc2ccc(O)cc2)N2C(=O)CCN(C(=O)NCc3ccccc3)[C@H]2CN1Cc1cccc2ccccc12 [ICG-001]	significantly decreases viability of MASMCs in culture in a dose-response manner		
Oc1nc(-c2ccc(C(F)(F)F)cc2)nc2c1CSCC2 [XAV939]		significant increase in p53 activity	induced p53 activity in control primary vascular SMCs (Adeno-GFP) in a dose dependent manner; also recorded: induced p53 activity in wild type vascular SMCs
